Experimental findings from patent US11504382B2, “Tricyclic inhibitors of Hepatitis B virus” (Antios Therapeutics, Inc., priority 2018, dated 2022) are described below.

Usually EC50 stands for the concentration at which the effect is half-maximal.

The structures appear in SMILES notation. Like-named read-outs stand apart in the source and are kept apart here.

The test system of the assay is HBV. The assay can be described thus: HBV inhibition assay in HepAD38 cells (extracellular HBV DNA by direct qPCR). The format is cell-based, Hepatitis B virus. The settings on record: 96 hours; for EC50: 8-point dose-response curve, read-out: HBV inh EC50; for inhibition at 0.1 µM / inhibition at 0.05 µM / Anti HBV Activity (conc μM): relative to non-treated reference; for inhibition at 0.1 µM / inhibition at 0.05 µM: read-out: Anti HBV Activity (conc μM). (In qPCR the cycle at which signal appears reflects the starting amount.)

For `Cc1cc(NC(=O)c2c3c(cn2C)S(=O)(=O)NC2CN(C(=O)c4ncoc4C)CC2CO3)ccc1F` (stereo not drawn) [Example E147, Trans-N-(4-fluoro-3-methylphenyl)-7-methyl-2-(5-methyloxazole-4-carbonyl)-2,3,3a,4,10,10a-hexahydro-1H,7H-dipyrrolo[3,4-b:3′,4′-f][1,4,5]oxathiazocine-8-carboxamide 5,5-dioxide], the EC50 (Hepatitis B virus) was less than 1000 nM.
On the same count and under the same terms, to `Cn1cc2c(c1C(=O)Nc1ccc(F)c(F)c1)OC[C@@H]1CCC[C@H]1NS2(=O)=O` [Example E8, (5aR,8aR)—N-(3,4-difluorophenyl)-2-methyl-5a,6,7,8,8a,9-hexahydro-2H,5H-cyclopenta[f]pyrrolo[3,4-b][1,4,5]oxathiazocine-1-carboxamide 4,4-dioxide] belongs less than 1000 nM.
Consider `Cc1cc(NC(=O)c2c3c(cn2C)S(=O)(=O)NC2CCN(C(=O)C45CC(CO4)C5)CC2CO3)ccc1F` (racemic) [Example E133, Trans-8-(2-oxabicyclo[2.1.1]hexane-1-carbonyl)-N-(4-fluoro-3-methylphenyl)-2-methyl-5,5a,6,7,8,9,9a,10-octahydro-2H-pyrido[4,3-f]pyrrolo[3,4-b][1,4,5]oxathiazocine-1-carboxamide 4,4-dioxide], for which the concentration giving a half-maximal response (EC50) is less than 1000 nM.
For the compound `Cn1cc2c(c1C(=O)Nc1cc(F)c(F)c(F)c1)OCC1CNCC1NS2(=O)=O` (racemic) [Example E11, cis-7-methyl-N-(3,4,5-trifluorophenyl)-2,3,3a,4,10,10a-hexahydro-1H,7H-dipyrrolo[3,4-b:3′,4′-f][1,4,5]oxathiazocine-8-carboxamide 5,5-dioxide], the inhibition at 0.1 µM (Hepatitis B virus, 0.1 μM) was greater than 50%. Also, the half-maximal effective concentration (EC50) (Hepatitis B virus) is less than 1000 nM.
As for `Cn1cc2c(c1C(=O)Nc1ccc(F)c(F)c1)OC[C@H]1NCC[C@H]1NS2(=O)=O` (single isomer, unassigned) [Example E25], the inhibition at 0.1 µM (Hepatitis B virus, 0.1 μM) was less than 50%.
For `Cc1nnc(C(=O)N2CC[C@H]3COc4c(cn(C)c4C(=O)Nc4ccc(F)c(C)c4)S(=O)(=O)N[C@@H]3C2)o1` (relative stereo) [Example E140, Trans-N-(4-fluoro-3-methylphenyl)-2-methyl-7-(5-methyl-1,3,4-oxadiazole-2-carbonyl)-5,5a,6,7,8,9,9a,10-octahydro-2H-pyrido[3,4-f]pyrrolo[3,4-b][1,4,5]oxathiazocine-1-carboxamide 4,4-dioxide], the EC50 (Hepatitis B virus) is less than 1000 nM.
As to `Cn1cc2c(c1C(=O)Nc1cc(F)c(F)c(F)c1)OCC1CN(S(=O)(=O)C3CC3)CC1NS2(=O)=O` (racemic) [Example E20, cis-2-(cyclopropylsulfonyl)-7-methyl-N-(3,4,5-trifluorophenyl)-2,3,3a,4,10,10a-hexahydro-1H,7H-dipyrrolo[3,4-b:3′,4′-f][1,4,5]oxathiazocine-8-carboxamide 5,5-dioxide], the inhibition at 0.1 µM (Hepatitis B virus, 0.1 μM) is greater than 50%. In addition, the 50% effective concentration (EC50) (Hepatitis B virus) is less than 1000 nM.
Regarding `Cn1cc2c(c1C(=O)Nc1cc(F)c(F)c(F)c1)OCC1CN(CC#N)CC1NS2(=O)=O` (stereo not drawn) [Example E74, cis-2-(cyanomethyl)-7-methyl-N-(3,4,5-trifluorophenyl)-2,3,3a,4,10,10a-hexahydro-1H,7H-dipyrrolo[3,4-b:3′,4′-f][1,4,5]oxathiazocine-8-carboxamide 5,5-dioxide], the inhibition at 0.05 µM (Hepatitis B virus, 0.05 μM) was greater than 50%. Also, the EC50 (Hepatitis B virus) was less than 1000 nM.
The like results for `CCOC(=O)N1C[C@H]2COc3c(cn(C)c3C(=O)Nc3ccc(F)c(C)c3)S(=O)(=O)N[C@H]2C1` (single isomer, unassigned) [Example E39] were, in that order, greater than 50% and less than 1000 nM.
Take `Cc1cc(NC(=O)c2c3c(cn2C)S(=O)(=O)N[C@H]2CN(C(=O)c4cnon4)C[C@H]2CO3)ccc1F` [Example E105, (3aR,10aR)—N-(4-fluoro-3-methylphenyl)-7-methyl-2-(1,2,5-oxadiazole-3-carbonyl)-2,3,3a,4,10,10a-hexahydro-1H,7H-dipyrrolo[3,4-b:3′,4′-f][1,4,5]oxathiazocine-8-carboxamide 5,5-dioxide]: the 50% effective concentration (EC50) (Hepatitis B virus) was less than 1000 nM.
Take `CCOC(=O)N1CC2COc3c(cn(C)c3C(=O)Nc3ccc(F)c(F)c3)S(=O)(=O)NC2C1` (single isomer, unassigned) [Example E37, Ethyl 8-((3,4-difluorophenyl)carbamoyl)-7-methyl-3a,4,10,10a-tetrahydro-1H,7H-dipyrrolo[3,4-b:3′,4′-f][1,4,5]oxathiazocine-2(3H)-carboxylate 5,5-dioxide (Chiral 3aS,10aS or 3aR,10aR - Stereochemistry unknown)]: the “Anti HBV Activity (conc μM)” value (0.05 μM) is “A (0.05) (HBV inhibition greater than 50% at the concentration indicated in the table)”.
For `Cc1nnc(N2C[C@H]3COc4c(cn(C)c4C(=O)Nc4ccc(F)c(Cl)c4)S(=O)(=O)N[C@H]3C2)o1` [Example E119, (3aR,10aR)—N-(3-chloro-4-fluorophenyl)-7-methyl-2-(5-methyl-1,3,4-oxadiazol-2-yl)-2,3,3a,4,10,10a-hexahydro-1H,7H-dipyrrolo[3,4-b:3′,4′-f][1,4,5]oxathiazocine-8-carboxamide 5,5-dioxide], the concentration for a half-maximal effect (EC50) (Hepatitis B virus) is less than 1000 nM.
For the compound `Cn1cc2c(c1C(=O)Nc1cc(F)c(F)c(F)c1)OCC1CN(C(=O)c3nccs3)CC1NS2(=O)=O` (stereo not drawn) [Example E58, cis-7-methyl-2-(thiazole-2-carbonyl)-N-(3,4,5-trifluorophenyl)-2,3,3a,4,10,10a-hexahydro-1H,7H-dipyrrolo[3,4-b:3′,4′-f][1,4,5]oxathiazocine-8-carboxamide 5,5-dioxide], under “Hepatitis B virus, 0.05 μM”, the inhibition at 0.05 µM is greater than 50%. Besides, for the setting “Hepatitis B virus”, the half-maximal effective concentration (EC50) was less than 1000 nM.
For `CCOC(=O)N1C[C@H]2CS(=O)(=O)c3c(cn(C)c3C(=O)Nc3ccc(F)c(C)c3)S(=O)(=O)N[C@H]2C1` [Example E123, Ethyl (3aR,10aR)-8-((4-fluoro-3-methylphenyl)carbamoyl)-7-methyl-3a,4,10,10a-tetrahydro-1H,7H-dipyrrolo[3,4-c:3′,4′-g][1,6,2]dithiazocine-2(3H)-carboxylate 5,5,9,9-tetraoxide], the concentration giving a half-maximal response (EC50) (Hepatitis B virus) was less than 1000 nM.
Turning to `C[C@H](N)C(=O)N1C[C@@H]2COc3c(cn(C)c3C(=O)Nc3cc(F)c(F)c(F)c3)S(=O)(=O)N[C@@H]2C1` (mixture of isomers) [Example E67, cis-2-(L-alanyl)-7-methyl-N-(3,4,5-trifluorophenyl)-2,3,3a,4,10,10a-hexahydro-1H,7H-dipyrrolo[3,4-b:3′,4′-f][1,4,5]oxathiazocine-8-carboxamide 5,5-dioxide], where the note is “Hepatitis B virus, 0.1 μM”, the inhibition at 0.1 µM was less than 50%.
As for `Cn1cc2c(c1C(=O)Nc1ccc(F)c(F)c1)OCC1CCCC1NS2(=O)=O` (single isomer, unassigned) [Example E34, N-(3,4-difluorophenyl)-2-methyl-5a,6,7,8,8a,9-hexahydro-2H,5H-cyclopenta[f]pyrrolo[3,4-b][1,4,5]oxathiazocine-1-carboxamide 4,4-dioxide (Chiral 5aS,8aR or 5aR,8aS - Stereochemistry unknown)], the “Anti HBV Activity (conc μM)” value (0.1 μM) is “B (0.1) (HBV inhibition less than 50% at the concentration indicated in the table)”.
As to `Cc1nnc(N2C[C@H]3COc4c(cn(C)c4C(=O)Nc4cc(F)c(F)c(F)c4)S(=O)(=O)N[C@H]3C2)o1` [Example E120, (3aR,10aR)-7-methyl-2-(5-methyl-1,3,4-oxadiazol-2-yl)-N-(3,4,5-trifluorophenyl)-2,3,3a,4,10,10a-hexahydro-1H,7H-dipyrrolo[3,4-b:3′,4′-f][1,4,5]oxathiazocine-8-carboxamide 5,5-dioxide], the EC50 (Hepatitis B virus) is less than 1000 nM.
